The text below walks through data of patent publication EP4574175A1, “PRODRUG FOR ANTI-AGING RELATED DISEASES AND USE METHOD THEREFOR” (BEIJING SUNCELL BIO-MEDICAL CO., LTD., priority 2022, dated 2024).

SMILES strings stand for the structures.

The subject of series [1] is induced senescent HEF cell. Briefly: In vitro compound screening, cell viability test (CCK-8). In kind it is cell-based, human. Particulars: HEF-ETO, Figure 1C.
Description: Briefly, the human embryonic skin tissues and the fetal lung tissues obtained from the aborted tissues with the patient's informed consent were minced with the forcep and incubated in 1 mg/ml collagenase IV at 37°C for 1-2 hours. After the enzyme treatment, the cells were collected by centrifugation and resuspended in HEF medium (Dulbecco's modified Eagle medium (DMEM, Gibco) containing 10% fetal bovine serum (FBS, Ausbian), 1% GlutaMAX (Gibco), 1% non-essential amino acids (NEAA, Gibco) and 1% penicillin/streptomycin (Gibco). Gibco). Cells were plated on the 10 cm tissue culture dishes and grown in 10% FBS DMEM. […] They were passaged and cryopreserved according to Lonza's method. A549 cells, BJ cells and MRC5 cells were purchased from ATCC and cultured in DMEM medium containing 10% fetal bovine serum (FBS, Ausbian), and 1% penicillin/streptomycin (Gibco).
Cell Counting Kit-8 (CCK-8) assay was used to assess the cell viability. The senescent and non-senescent cells or chondrocytes were seeded into the 96-well plates and cultured overnight. The cells were then treated with control (0.05% DMSO) or different concentrations of the drug to be tested. […] Absorbance was measured at the wavelength of 450 nm.
The next series deals with platelets. Briefly: In vivo platelet toxicity test. The arrangement: species or system C57 mice. To be noted: multiple rounds i.p. The procedure:
(§1) All drugs were mixed in 85% physiological saline, 5% DMSO (Sigma, D8418) and 10% Solutol HS 15 (Sigma, 42966), and administered to mice by intraperitoneal (i.p.) injection. To treat the bleomycin-injured young mice, A13 (2 mg/kg), A13bGa1 (5 mg/kg), or an empty vehicle control was administered three consecutive days per week for four weeks. A1331852 (abbreviated as A13) was purchased from MCE.
(§2) A single administration of A13 or A13bG was performed. Female 5-6 week old C57 mice were treated with a single intraperitoneal injection. A13 and A13bG were administered in three different dose groups of 2, 5, and 20 mg/kg. Approximately 50 µl of blood was collected from each mouse at different time points into the EDTA tubes (RAM Scientific) by means of inner canthal blood extraction, and analyzed using a haematology analyzer for a blood routine examination and a platelet counting. Multiple administrations of A13 or A13bG were performed. Female 5-6 week old C57 mice were treated with multiple intraperitoneal injections. A13 and A13bG were administered in three different dose groups of 2, 5 and 20 mg/kg, three consecutive days per week, followed by a 4-day withdrawal for 3 weeks. The time points of administration were in the afternoon of days 0, 1, 2, 7, 8, 9, 14, 15, and 16, and the time points of blood collection and testing were in the morning of days 1, 3, 5, 8, 10, 12, 15, 17, and 19, respectively.
For a blood routine examination, 50 µl of fresh blood was collected from each mouse and immediately mixed with EDTA. Blood samples were analyzed by Celltac Alpha MEK-6400 series haematology analyzer (Nihon Kohden, MEK-6400). Data were expressed as the number of different blood cells or platelets per µl of blood. For the serum biochemical analysis, the blood samples were collected, coagulated for 2 hours at room temperature or overnight at 4°C, and then centrifuged (1000 g, 10 minutes) to obtain serum. A 200 µl of serum was aliquoted and analyzed for alanine aminotransferase (ALT), aspartate aminotransferase (AST), uric acid (UA), and creatinine (CREA) by a chemistry analyzer (Mindray, BS-350E).

A short description of series [2]: Daily observation of mice during multiple administration. The series is classed as in vivo, C57 mice. To be noted: after 3 consecutive rounds of administration. As for the experimental part:
as §2

For series [3], the system named is induced senescent A549 cell. Briefly: In vitro compound screening, cell viability test (CCK-8). In kind it is cell-based, human. To be noted: for killing activity on the senescent cells compared with ABT-263: A549-CDDP, Figure 1B; for senescent cell killing activity and selectivity in vitro (screening): induced senescent A549 cell model, Figure 1A.
Series [4] has as its system mouse model of Bleomycin-induced pulmonary fibrosis. Briefly: Bleomycin-induced pulmonary fibrosis mouse model. To be noted: A13 2 mg/kg. In kind it is in vivo, C57 mice. The procedure:
as §1
Bleomycin was purchased from Selleck. […]. Drug treatment was initiated four days after modelling, and the drug was administered three consecutive days per week for four consecutive weeks, after which the mice were executed for material collection.
All animals (including those found dead, dying, and euthanised) were autopsied, and the lung tissues were preserved. The lungs were separated, the fat and other tissues were removed, the surface fluid was absorbed using a filter paper, and the whole lungs were weighed (those found dead, dying, and euthanised) for calculation of the lung weight index. The right lung and bronchiole were fixed in 10% neutral buffered formalin solution, embedded in paraffin, sectioned, prepared into slices, and stained with HE for a histopathological and morphological observation of the lung. The degree of the lesions such as the inflammatory cell infiltration in the lung tissue were graded according to a 4-grade classification (slight, mild, moderate, severe) using a standard terminology for diagnosis and classification. The left lung tissue was clipped and stored temporarily below -60°C. Lung weight index(%) = lung weight/body weight × 100%. [formula]
Masson trichrome stain kit (Solarbio, G1340) was used to detect fibrosis in the lung tissue. The formalin-fixed, and paraffin-embedded lung sections were dewaxed with xylene, and then rehydrated with 100% alcohol, 95% alcohol and distilled water. The sections were then stained according to the manufacturer's instructions. Afterwards, the sections were rapidly dehydrated with 95% alcohol and 100% alcohol, cleaned with xylene and covered with the coverslips. […]

A further series deals with non-senescent A549 cells. Nature of the series: Cell killing activity assay (CCK-8), Example 7. In kind it is cell-based, human. Particulars: 25 µM. The procedure:
(§3) Preparation of the cell plates: The non-senescent, and the induced senescent HEF cells and A549 cells were taken respectively, digested with trypsin, and centrifuged at 1000 rmp for 5 minutes. The supernatants were removed, and the cells were resuspended in fresh DMEM medium containing 10% foetal bovine serum for counting. The cell density was adjusted so that the density of the non-senescent cells was at 4000 cells/100 µL and the density of the senescent cells was at 7000 cells/100 µL. The cell suspension was added to the 96-well transparent cell culture plates at 100 µL per well. Note that the edge wells of the 96-well plate were not used for the test wells, and 300 µL PBS is added separately to reduce the medium evaporation. The cell-spread 96-well plates were put back into the incubator at 37°C for the overnight incubation until the cells adhered to the wall.
(§4) Formulation of the drug concentration gradients: After the cells adhered to the wall on the second day, the small molecule compounds (d-12, d-11, and d-4) to be tested for activity are ready to be added. […] 3 parallel replicate wells were set up for each test drug concentration. The 96-well plate was put back into the incubator at 37°C, and the cell survival was tested after three days.
(§5) Detection of the cell survival after the drug treatment using the CCK-8 method: Three days after the addition of the drug, the well plate was removed, the supernatant was discarded, and 100 µL of the pre-prepared CCK-8 working solution was added to each well. The CCK-8 working solution was obtained by diluting the CCK8 stock solution (C0041, Beyotime) with the serum-free DMEM medium in 10-fold volume. The 96-well plate added with the CCK-8 working solution was put back to the incubator at 37°C and incubated for 0.5-2 hours. The plate was taken out to determine the absorbance value (OD value) of each well at the wavelength of 450 nm. The cell viability in each experimental group was calculated. The following formula was used: the relative cell viability (%) = […] x 100 %.

Another series concerns non-senescent HEF cells. Briefly: Cell killing activity assay (CCK-8), Example 7. In kind it is cell-based, human. To be noted: 25 µM. The procedure: as §3, §4, §5
The test system of the next series is senescent HEF cells. Briefly: Cell killing activity assay (CCK-8), Example 7. In kind it is cell-based, human. To be noted: HEF-induced senescence cell model, up to 25 µM, three days. As for the experimental part: as §3, §4, §5
Another series concerns senescent A549 cells. Briefly: Cell killing activity assay (CCK-8), Example 7. The series is classed as cell-based, human. To be noted: three days; for selective killing of the senescent cells: A549-induced senescence cell model, up to 25 µM. As for the experimental part:
as §3, §4, §5

[5] abbreviates: lung HE, number of animals of 6, A13bGa1 5 mg/kg.
[6] abbreviates: number of animals of 6, A13bGa1 5 mg/kg.

For the compound `Cc1c(-c2ccc(N3CCc4cccc(C(=O)Nc5nc6ccccc6s5)c4C3)nc2C(=O)O)cnn1CC12CC3CC(CC(C3)C1)C2` [A13, 3-[1-(adamantan-1-ylmethyl)-5-methylpyrazol-4-yl]-6-{8-[(1,3-benzothiazol-2-yl)carbamoyl]-3,4-dihydro-1H-isoquinolin-2-yl}pyridine-2-carboxylic acid], in series [1], the “killing activity on the senescent cells compared with ABT-263” value (“killing activity … compared with ABT-263” for short) is given as “higher than that of the classical small molecule inhibitor ABT-263”. Moreover, the “toxic effects on the platelets” value in the series on platelets (3 consecutive days per week for 3 weeks, 2 mg/kg) is given as “very serious toxic effects on the platelets”. Besides, the “toxic effects on the platelets” value in the series on platelets (3 consecutive days per week for 3 weeks, 2, 5 and 20 mg/kg) is reported as “strong destructive effects on the platelets”. Besides, the “mice depilated, dispirited and in poor state” value in series [2] (5 mg/kg i.p.) is reported as 2/4. In addition, the “mice depilated, dispirited and in poor state” value in [2] (20 mg/kg i.p.) is 2/4. In addition, in [3], the “killing activity … compared with ABT-263” value is “higher than that of the classical small molecule inhibitor ABT-263”; the “senescent cell killing activity and selectivity in vitro (screening)” value was “good senescent cell killing activity and selectivity in vitro”. In [4] (A13bGa1 5 mg/kg i.p.), the “pathological manifestations of the pulmonary fibrosis (Masson staining)” value is given as “not improved”. Further, in series [4] (A13bGa1 5 mg/kg i.p., 3 consecutive days per week for 4 weeks), the lung index entry is given as “no improvement”. Further, the “inflammation and consolidation of the mouse lungs (pathological sections)” value in series [4] (A13bGa1 5 mg/kg i.p., HE staining) is “no improvement was observed”. Besides, in series [4] (setting [5]), the “Bleeding, alveolar/interstitial: mild (++)” value is reported as 2; the “Bleeding, alveolar/interstitial: moderate (+++)” value is reported as 0; the “Bleeding, alveolar/interstitial: negative (-)” value came to 2; the “Bleeding, alveolar/interstitial: slight (+)” value was found to be 2. Further, in series [4] (setting [5]), the “Exudative oedema, alveolar: mild (++)” value turned out to be 1; the “Exudative oedema, alveolar: moderate (+++)” value was 1; the “Exudative oedema, alveolar: negative (-)” value came to 0; the “Exudative oedema, alveolar: severe (++++)” value was 3. Moreover, in [4] (setting [5]), the “Exudative oedema, alveolar: slight (+)” value came to 1; the “The infiltration of the inflammatory cells: mild (++)” value was 2; the “The infiltration of the inflammatory cells: moderate (+++)” value is given as 1; the “The infiltration of the inflammatory cells: negative (-)” value was 1. Besides, in series [4] (setting [5]), the “The infiltration of the inflammatory cells: slight (+)” value was 2; the “Thickening and consolidation of the pulmonary septum: mild (++)” value is reported as 2; the “Thickening and consolidation of the pulmonary septum: moderate (+++)” value was determined as 1; the “Thickening and consolidation of the pulmonary septum: negative (-)” value was found to be 0. Also, in series [4] (setting [5]), the “Thickening and consolidation of the pulmonary septum: severe (++++)” value was found to be 2; the “Thickening and consolidation of the pulmonary septum: slight (+)” value stood at 1. Also, in series [4] (setting [6]), the “degree of fibrosis in the lungs using Masson staining: Moderately strong positive (+++)” value stood at 1, the “degree of fibrosis in the lungs using Masson staining: extremely strong positive (++++)” value is reported as 2, the “degree of fibrosis in the lungs using Masson staining: moderately positive (++)” value stood at 1 and the “degree of fibrosis in the lungs using Masson staining: not positive (-)” value is 0. The “degree of fibrosis in the lungs using Masson staining: weakly positive (+)” value in series [4] (setting [6]) was 2.

Consider `CN(C)CC#Cc1ccc(OCCCc2sc(N3CCc4cccc(C(=O)Nc5nc6ccccc6s5)c4C3)nc2C(=O)O)c(F)c1` [A1155463], for which the “killing activity … compared with ABT-263” value in series [1] is reported as “higher than that of the classical small molecule inhibitor ABT-263”. Besides, in series [3], the “killing activity … compared with ABT-263” value was “higher than that of the classical small molecule inhibitor ABT-263”; the “senescent cell killing activity and selectivity in vitro (screening)” value was “good senescent cell killing activity and selectivity in vitro”.

`Cc1sc2c(c1C)C(c1ccc(Cl)cc1)=N[C@@H](CC(=O)Nc1ccc(OCCOCCOCCOCCNc3cccc4c3C(=O)N(C3CCC(=O)NC3=O)C4=O)cc1)c1nnc(C)n1-2` (stereo partly drawn) [ARV825]: the “senescent cell killing activity and selectivity in vitro (screening)” value in series [3] was “better in vitro killing activity”.

As to `Cc1ncsc1-c1ccc(CNC(=O)[C@@H]2C[C@@H](O)CN2C(=O)[C@@H](NC(=O)COCCOCCOCCNC(=O)C[C@@H]2N=C(c3ccc(Cl)cc3)c3c(sc(C)c3C)-n3c(C)nnc32)C(C)(C)C)cc1` [MZ1], the “senescent cell killing activity and selectivity in vitro (screening)” value in series [3] is recorded as “better in vitro killing activity”.

`CC(=O)OC[C@H]1O[C@@H](Oc2ccc(C(Cc3cn(CCCN4CCOCC4)nn3)OC(=O)c3nc(N4CCc5cccc(C(=O)Nc6nc7ccccc7s6)c5C4)ccc3-c3cnn(CC45CC6CC(CC(C6)C4)C5)c3C)cc2[N+](=O)[O-])[C@H](OC(C)=O)[C@@H](OC(C)=O)[C@H]1OC(C)=O` (stereo partly drawn) [d-11]: the “killing of the non-senescent cells at the highest concentration” value in the series on non-senescent A549 cells and with non-senescent HEF cells was “none of the three molecules killed the non-senescent cells” in each case. Besides, the “selective killing of the senescent cells” value in the series with senescent HEF cells and with senescent A549 cells was “selective killing of the senescent cells” each time.

Consider `Cc1c(-c2ccc(N3CCc4cccc(C(=O)Nc5nc6ccccc6s5)c4C3)nc2C(=O)OC(Cc2cn(CCCN3CCOCC3)nn2)c2ccc(O[C@@H]3O[C@H](CO)[C@H](O)[C@H](O)[C@H]3O)c([N+](=O)[O-])c2)cnn1CC12CC3CC(CC(C3)C1)C2` (stereo partly drawn) [d-12], for which the “killing of the non-senescent cells at the highest concentration” value in the series on non-senescent A549 cells and with non-senescent HEF cells was “none of the three molecules killed the non-senescent cells” throughout. Also, the “selective killing of the senescent cells” value with senescent HEF cells and with senescent A549 cells was “selective killing of the senescent cells” in each case. Also, the IC50 – broadly, the midpoint of a concentration-inhibition curve – with senescent A549 cells (Cisplatin-induced senescent A549 cells, CCK-8) is ~6.9 µM.

In the case of `Cc1sc2c(c1C)C(c1ccc(Cl)cc1)=N[C@@H](CC(=O)NCCCCCCCCNC(=O)COc1cccc3c1C(=O)N(C1CCC(=O)NC1=O)C3=O)c1nnc(C)n1-2` (stereo partly drawn) [dBET6], the “senescent cell killing activity and selectivity in vitro (screening)” value in series [3] was “better in vitro killing activity”.
